From patent publication US6376497B1, “Antifungal azole derivatives having a fluorinated vinyl group and process for preparing same” (Korea Research Institute of Chemical Technology, priority 1999, dated 2002)
Converted amounts (≈) assume the structure as drawn.

How the values were obtained:
Assay in all cases: In vitro antifungal activity, microbroth dilution MIC
Assay type in all cases: cell-based
[1] = test system: Aspergillus furnigatus B. 19119; conditions: 4 to 48 hours; for Minimal inhibitory concentration (MIC): A furnigatus B. 19119, RPMI-1640, 35° C.
Procedure, shortened: (§1)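 Broth microdilution adapted from NCCLS M27, in RPMI-1640 with 0.165 M MOPS, pH 7.0. Yeast or mould inoculum at 2×10^3 CFU/ml was mixed 1:1 with DMSO-derived compound solutions (200 to 0.10 μg/ml before mixing) and incubated at 35 °C for 4 to 48 h. MIC was the concentration showing no growth.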

[2] = test system: Aspergillus niger A. 16404; conditions: 4 to 48 hours; for Minimal inhibitory concentration (MIC): A. niger A. 16404, RPMI-1640, 35° C.
Procedure, shortened: as §1

[3] = test system: Candida albicans A. 10231; conditions: 4 to 48 hours; for Minimal inhibitory concentration (MIC): C. albicans A. 10231, RPMI-1640, 35° C.
Procedure, shortened: as §1

Candida albicans C1-2 = conditions: 4 to 48 hours; for Minimal inhibitory concentration (MIC): C. albicans C1-2, RPMI-1640, 35° C.
Procedure, shortened: as §1

[4] = test system: Candida albicans IFO. 1385; conditions: 4 to 48 hours; for Minimal inhibitory concentration (MIC): C. albicans IFO. 1385, RPMI-1640, 35° C.
Procedure, shortened: as §1

Candida krusei K. 11655 = conditions: 4 to 48 hours; for Minimal inhibitory concentration (MIC): C. krusei K. 11655, RPMI-1640, 35° C.
Procedure, shortened: as §1

[5] = test system: Candida parapsitosis A. 7330; conditions: 4 to 48 hours; for Minimal inhibitory concentration (MIC): C. parapsitosis A. 7330, RPMI-1640, 35° C.
Procedure, shortened: as §1

[6] = test system: Candida pseudotropicalis K. 11658; conditions: 4 to 48 hours; for Minimal inhibitory concentration (MIC): C. pseudotropicalis K. 11658, RPMI-1640, 35° C.
Procedure, shortened: as §1

[7] = test system: Candida tropicalis A. 13803; conditions: 4 to 48 hours; for Minimal inhibitory concentration (MIC): C. tropicalis A. 13803, RPMI-1640, 35° C.
Procedure, shortened: as §1

[8] = test system: Cryptococcus neoformans A. 34144; conditions: 4 to 48 hours; for Minimal inhibitory concentration (MIC): Cry. neoformans A. 34144, RPMI-1640, 35° C.
Procedure, shortened: as §1

[9] = test system: Cryptococcus neoformans B. 42419; conditions: 4 to 48 hours; for Minimal inhibitory concentration (MIC): Cry. neoformans B. 42419, RPMI-1640, 35° C.
Procedure, shortened: as §1

[10] = test system: Cryptococcus neoformans IFM. 40092; conditions: 4 to 48 hours; for Minimal inhibitory concentration (MIC): Cry. neoformans IFM. 40092, RPMI-1640, 35° C.
Procedure, shortened: as §1

[11] = test system: Torulopsis glabrata B. 16205; conditions: 4 to 48 hours; for Minimal inhibitory concentration (MIC): T. glabrata B. 16205, RPMI-1640, 35° C.
Procedure, shortened: as §1

[12] = test system: Trichophyton mentagrophytes A. 9129; conditions: 4 to 48 hours; for Minimal inhibitory concentration (MIC): T. mentagrophytes A. 9129, RPMI-1640, 35° C.
Procedure, shortened: as §1

[13] = test system: Trichophyton mentagrophytes B. 32663; conditions: 4 to 48 hours; for Minimal inhibitory concentration (MIC): T. mentagrophytes B. 32663, RPMI-1640, 35° C.
Procedure, shortened: as §1

[14] = RPMI-1640, 35° C., no growth observed

Minimal inhibitory concentration (MIC) [1] [µg/mL]	Minimal inhibitory concentration (MIC) [2] [µg/mL]	Minimal inhibitory concentration (MIC) [3] [µg/mL]	Minimal inhibitory concentration (MIC) (Candida albicans C1-2) [µg/mL]	Minimal inhibitory concentration (MIC) [4] [µg/mL]	Minimal inhibitory concentration (MIC) (Candida krusei K. 11655) [µg/mL]	Minimal inhibitory concentration (MIC) [5] [µg/mL]	Minimal inhibitory concentration (MIC) [6] [µg/mL]	Minimal inhibitory concentration (MIC) [7] [µg/mL]	Minimal inhibitory concentration (MIC) [8] [µg/mL]	Minimal inhibitory concentration (MIC) [9] [µg/mL]	Minimal inhibitory concentration (MIC) [10] [µg/mL]	Minimal inhibitory concentration (MIC) [11] [µg/mL]	Minimal inhibitory concentration (MIC) [12] [µg/mL]	Minimal inhibitory concentration (MIC) [13] [µg/mL]	Structure (SMILES)	further results
3.13 (≈ 6.76 µM)	3.13 (≈ 6.76 µM)	12.5 (≈ 27 µM)	25.0 (≈ 54 µM)	0.78 (≈ 1.68 µM)	6.25 (≈ 13.5 µM)	6.25 (≈ 13.5 µM)	6.25 (≈ 13.5 µM)	25.0 (≈ 54 µM)	0.39 (≈ 0.842 µM)	3.13 (≈ 6.76 µM)	1.56 (≈ 3.37 µM)	3.13 (≈ 6.76 µM)	1.56 (≈ 3.37 µM)	1.56 (≈ 3.37 µM)	Cc1ccc(C=C(F)OCC2COC(Cn3ccnc3)(c3ccc(Cl)cc3Cl)O2)cc1 (stereo not drawn) [Ex. 3]	–
12.5	50.0	12.5	12.5	0.39	25.0	12.5	12.5	25.0	1.56	1.56	0.20	6.25	6.25	1.56	Cc1ccc(C=C(F)OCC2COC(Cn3ccnc3)(c3ccc(F)cc3F)O2)cc1 (mixture of isomers) [Ex. 38]	–
12.5	25.0	12.5	12.5	0.78	25.0	25.0	25.0	25.0	1.56	1.56	0.20	6.25	6.25	1.56	Cc1ccc(C=C(F)OCC2COC(Cn3ccnc3)(c3ccc(F)cc3F)O2)cc1C (mixture of isomers) [Ex. 40]	–

More lines, now with the values behind:

Structure (SMILES)	Minimal inhibitory concentration (MIC) [1] [µg/mL]	Minimal inhibitory concentration (MIC) [2] [µg/mL]	Minimal inhibitory concentration (MIC) [3] [µg/mL]	Minimal inhibitory concentration (MIC) (Candida albicans C1-2) [µg/mL]	Minimal inhibitory concentration (MIC) [4] [µg/mL]	Minimal inhibitory concentration (MIC) (Candida krusei K. 11655) [µg/mL]	Minimal inhibitory concentration (MIC) [5] [µg/mL]	Minimal inhibitory concentration (MIC) [6] [µg/mL]	Minimal inhibitory concentration (MIC) [7] [µg/mL]	Minimal inhibitory concentration (MIC) [8] [µg/mL]	Minimal inhibitory concentration (MIC) [9] [µg/mL]	Minimal inhibitory concentration (MIC) [10] [µg/mL]	Minimal inhibitory concentration (MIC) [11] [µg/mL]	Minimal inhibitory concentration (MIC) [12] [µg/mL]	Minimal inhibitory concentration (MIC) [13] [µg/mL]	further results
FC(OCC1COC(Cn2ccnc2)(c2ccc(Cl)cc2Cl)O1)=C(c1ccc2c(c1)OCO2)C(F)(F)F (stereo not drawn) [Ex. 28]	100 (≈ 178 µM)	100 (≈ 178 µM)	25.0 (≈ 44.5 µM)	25.0 (≈ 44.5 µM)	1.56 (≈ 2.78 µM)	>100	100 (≈ 178 µM)	100 (≈ 178 µM)	100 (≈ 178 µM)	1.56 (≈ 2.78 µM)	1.56 (≈ 2.78 µM)	0.78 (≈ 1.39 µM)	25.0 (≈ 44.5 µM)	25.0 (≈ 44.5 µM)	6.25 (≈ 11.1 µM)	–
FC(OCC1COC(Cn2ccnc2)(c2ccc(F)cc2F)O1)=C(c1ccc(C(F)(F)F)cc1)C(F)(F)F (mixture of isomers) [Ex. 59]	50.0	>100	12.5	25.0	0.78	50.0	>100	25.0	>100	3.13	3.13	0.78	3.13	25.0	12.5	–
Cc1ccc(C(=C(F)OCC2COC(Cn3ccnc3)(c3ccc(Cl)cc3Cl)O2)C(F)(F)F)cc1C (stereo not drawn) [Ex. 23]	50.0 (≈ 91.7 µM)	100 (≈ 183 µM)	6.25 (≈ 11.5 µM)	6.25 (≈ 11.5 µM)	0.78 (≈ 1.43 µM)	100 (≈ 183 µM)	>100	100 (≈ 183 µM)	25.0 (≈ 45.8 µM)	1.56 (≈ 2.86 µM)	1.56 (≈ 2.86 µM)	0.39 (≈ 0.715 µM)	12.5 (≈ 22.9 µM)	12.5 (≈ 22.9 µM)	6.25 (≈ 11.5 µM)	–
FC(Oc1ccc(OCC2COC(Cn3ccnc3)(c3ccc(F)cc3F)O2)cc1)=C(c1ccc2c(c1)OCO2)C(F)(F)F (mixture of isomers) [Ex. 112]	–	–	–	–	–	–	–	–	–	–	–	–	–	–	–	Minimal inhibitory concentration(MIC), A furnigatus B. 19119 [1, 14]: >100 µg/mL; Minimal inhibitory concentration(MIC), A. niger A. 16404 [2, 14]: >100 µg/mL; Minimal inhibitory concentration(MIC), C. albicans A. 10231 [3, 14]: 25.0 µg/mL; Minimal inhibitory concentration(MIC), C. albicans C1-2 (Candida albicans C1-2; [14]): 12.5 µg/mL; Minimal inhibitory concentration(MIC), C. albicans IFO. 1385 [4, 14]: 1.56 µg/mL; Minimal inhibitory concentration(MIC), C. krusei K. 11655 (Candida krusei K. 11655; [14]): >100 µg/mL; Minimal inhibitory concentration(MIC), C. parapsitosis A. 7330 [5, 14]: >100 µg/mL; Minimal inhibitory concentration(MIC), C. pseudotropicalis K. 11658 [6, 14]: 25.0 µg/mL; Minimal inhibitory concentration(MIC), C. tropicalis A. 13803 [7, 14]: 100 µg/mL; Minimal inhibitory concentration(MIC), Cry. neoformans A. 34144 [8, 14]: 1.56 µg/mL; Minimal inhibitory concentration(MIC), Cry. neoformans B. 42419 [9, 14]: 1.56 µg/mL; Minimal inhibitory concentration(MIC), Cry. neoformans IFM. 40092 [10, 14]: 0.39 µg/mL; Minimal inhibitory concentration(MIC), T. glabrata B. 16205 [11, 14]: 50.0 µg/mL; Minimal inhibitory concentration(MIC), T. mentagrophytes A. 9129 [12, 14]: 6.25 µg/mL; Minimal inhibitory concentration(MIC), T. mentagrophytes B. 32663 [13, 14]: 3.13 µg/mL
COc1ccc(C(=C(F)OCC2COC(Cn3ccnc3)(c3ccc(Cl)cc3Cl)O2)C(F)(F)F)cc1 (stereo not drawn) [Ex. 27]	100 (≈ 183 µM)	100 (≈ 183 µM)	25.0 (≈ 45.7 µM)	25.0 (≈ 45.7 µM)	1.56 (≈ 2.85 µM)	>100	>100	>100	>100	1.56 (≈ 2.85 µM)	1.56 (≈ 2.85 µM)	0.78 (≈ 1.43 µM)	25.0 (≈ 45.7 µM)	25.0 (≈ 45.7 µM)	6.25 (≈ 11.4 µM)	–
